Measurements from PubChem BioAssay AID314 (DTP/NCI, 2004).
Values joined by “and” are separate entries in the source; they are usually repeats but may differ in a detail not shown here. Identical values can stand only once. Inconclusive results and toxic doses are left out.

Tested on: DBA/2 mice, P1534 leukemia ip, survival T/C
Test: NCI In Vivo Anticancer Drug Screen. Data for tumor model P1534 Leukemia (intraperitoneal) in DBA/2 mice
Conditions: endpoint: mean survival time, higher = longer survival
Description: The antitumor activity of compounds was measured in mice bearing transplantable tumors. Survival or tumor size were measured and the results are expressed as the measurement made in the treated group (T) divided by the measurement made in the vehicle treated control group (C). The tumor model used in this assay is P1534 Leukemia (intraperitoneal) in DBA/2 mice

[1] = dose: 32.0 mg/kg/injection, schedule: Q01DX010 (ip), vehicle: saline
[2] = dose: 64.0 mg/kg/injection, schedule: Q01DX010 (ip), vehicle: saline
[3] = dose: 31.3 mg/kg/injection, schedule: Q01DX010 (ip), vehicle: saline
[4] = dose: 62.5 mg/kg/injection, schedule: Q01DX010 (ip), vehicle: saline
[5] = dose: 125.0 mg/kg/injection, schedule: Q01DX010 (ip), vehicle: saline
[6] = dose: 250.0 mg/kg/injection, schedule: Q01DX010 (ip), vehicle: saline
[7] = dose: 2.0 mg/kg/injection, schedule: Q01DX010 (ip), vehicle: saline
[8] = dose: 4.0 mg/kg/injection, schedule: Q01DX010 (ip), vehicle: saline
[9] = dose: 8.0 mg/kg/injection, schedule: Q01DX010 (ip), vehicle: saline
[10] = dose: 6.25 mg/kg/injection, schedule: Q01DX010 (ip), vehicle: saline
[11] = dose: 12.5 mg/kg/injection, schedule: Q01DX010 (ip), vehicle: saline
[12] = dose: 25.0 mg/kg/injection, schedule: Q01DX010 (ip), vehicle: saline
[13] = dose: 50.0 mg/kg/injection, schedule: Q01DX010 (ip), vehicle: saline
[14] = dose: 3.13 mg/kg/injection, schedule: Q01DX010 (ip), vehicle: saline
[15] = dose: 0.5 mg/kg/injection, schedule: Q01DX010 (ip), vehicle: saline
[16] = dose: 1.0 mg/kg/injection, schedule: Q01DX010 (ip), vehicle: saline
[17] = dose: 2.5 mg/kg/injection, schedule: Q01DX010 (ip), vehicle: saline
[18] = dose: 0.25 mg/kg/injection, schedule: Q01DX010 (ip), vehicle: saline
[19] = dose: 10.0 mg/kg/injection, schedule: Q01DX010 (ip), vehicle: saline
[20] = dose: 20.0 mg/kg/injection, schedule: Q01DX010 (ip), vehicle: saline
[21] = dose: 16.0 mg/kg/injection, schedule: Q01DX010 (ip), vehicle: saline
[22] = dose: 500.0 mg/kg/injection, schedule: Q01DX010 (ip), vehicle: saline

For `CCCCn1cnc2c(=S)nc[nH]c21`, the T/C [1] was 96 % of control, the T/C [2] was 92 % of control and 96 % of control and the T/C (dose: 128.0 mg/kg/injection, schedule: Q01DX010 (ip), vehicle: saline) was 96 % of control and 100 % of control.
In the case of `NC(=O)c1ccc(N)nc1`, the T/C (dose: 3.0 mg/kg/injection, schedule: Q01DX010 (ip), vehicle: saline) is reported as 90 % of control.
With `CCNc1nncs1` the T/C (dose: 15.6 mg/kg/injection, schedule: Q01DX010 (ip), vehicle: saline) was 100 % of control and the T/C [3] was 100 % of control.
With `O=c1[nH]c(=O)n(C2CC(O)C(CO)O2)cc1Br` (stereo not drawn) the T/C [4] was 121 % of control, the T/C [5] was 107 % of control and the T/C [6] was 96 % of control.
For `CC(CCC(C)OS(C)(=O)=O)OS(C)(=O)=O` (stereo not drawn), the T/C [7] was 96 % of control and 103 % of control, the T/C [8] was 100 % of control and 107 % of control and the T/C [9] was 96 % of control and 100 % of control.
`COC1C(OC(N)=O)C(O)C(Oc2ccc3c(O)c(NC(=O)c4ccc(O)c(CC=C(C)C)c4)c(=O)oc3c2C)OC1(C)C` (stereo not drawn) was tested, and the T/C [10] was 100 % of control, the T/C [11] was 104 % of control and the T/C [12] was 100 % of control. The T/C [13] was 103 % of control and 104 % of control, the T/C (dose: 100.0 mg/kg/injection, schedule: Q01DX010 (ip), vehicle: saline) was 96 % of control and the T/C (dose: 200.0 mg/kg/injection, schedule: Q01DX010 (ip), vehicle: saline) was 92 % of control.
For `COC12C(COC(N)=O)C3=C(C(=O)C(C)=C(N)C3=O)N1CC1C2N1C` (stereo not drawn), the T/C (dose: 2.5 mg/kg/injection, schedule: Q01DX010 (sc), vehicle: saline) was 108 % of control, the T/C (dose: 5.0 mg/kg/injection, schedule: Q01DX010 (sc), vehicle: saline) was 108 % of control and the T/C (dose: 10.0 mg/kg/injection, schedule: Q01DX010 (sc), vehicle: saline) was 100 % of control.
In the case of `C[C@H]1C(=O)O[C@@H]2CCN3CC=C(COC(=O)[C@](C)(O)[C@@]1(C)O)[C@H]23`, the T/C [14] is reported as 100 % of control and 117 % of control, the T/C [10] is reported as 96 % of control and 107 % of control and the T/C [11] is reported as 96 % of control and 107 % of control. For the same molecule, the T/C [12] was 100 % of control.
For `C[C@]12CC[C@H](OC3OC(CO)C(O)C(O)C3O)C[C@H]1CC[C@@H]1[C@@H]2CC[C@]2(C)[C@@H](C3=CCOC3=O)CC[C@]12O` (stereo partly drawn), the T/C [15] was 100 % of control and the T/C [16] was 91 % of control.
With `Oc1cc(CN(CCCl)CCCl)c(O)cc1CN(CCCl)CCCl` the T/C [17] was 117 % of control.
In the case of `COS(C)(=O)=O`, the T/C [11] is reported as 88 % of control and 100 % of control, the T/C [12] is reported as 88 % of control and the T/C [13] is reported as 92 % of control.
`COC(=O)C1C(O)CCC2CN3CCc4c([nH]c5ccccc45)C3CC21` (stereo not drawn) was tested, and the T/C (dose: 0.31 mg/kg/injection, schedule: Q01DX010 (ip), vehicle: saline) was 103 % of control, the T/C (dose: 0.63 mg/kg/injection, schedule: Q01DX010 (ip), vehicle: saline) was 103 % of control and the T/C (dose: 1.25 mg/kg/injection, schedule: Q01DX010 (ip), vehicle: saline) was 106 % of control. For the same molecule, the T/C [17] was 103 % of control.
`Nc1nc(=S)c2ncn(C3OC(CO)C(O)C3O)c2[nH]1` (stereo not drawn) was tested, and the T/C [18] was 110 % of control, the T/C [16] was 96 % of control and the T/C [7] was 89 % of control.
In the case of `CC1CCOS(=O)O1` (stereo not drawn), the T/C [19] is reported as 92 % of control and the T/C [20] is reported as 92 % of control.
`CC[C@]1(O)C[C@H]2CN(CCc3c([nH]c4ccccc34)[C@@](C(=O)OC)(c3cc4c(cc3OC)N(C=O)[C@H]3[C@@](O)(C(=O)OC)[C@H](OC(C)=O)[C@]5(CC)C=CCN6CC[C@]43[C@@H]65)C2)C1` was tested, and the T/C (dose: 15.6 micrograms/kg/injection, schedule: Q01DX010 (ip), vehicle: saline) was 117 % of control and the T/C (dose: 31.3 micrograms/kg/injection, schedule: Q01DX010 (ip), vehicle: saline) was 114 % of control.
In the case of `CC(=O)Nc1ccc2nc3ccc(NC(C)=O)cc3[n+](-c3ccccc3)c2c1`, the T/C [3] is reported as 100 % of control, the T/C [4] is reported as 103 % of control and the T/C [6] is reported as 88 % of control.
For `NCCCCCCNC(=O)CCCCC(=O)NCCCCCCN`, the T/C [9] was 100 % of control, the T/C [21] was 100 % of control and the T/C [1] was 95 % of control. The T/C [2] was 95 % of control.
For `Cn1c(O)c(N=NC(N)=S)c2ccccc21`, the T/C [3] was 100 % of control, the T/C [4] was 100 % of control and the T/C [5] was 103 % of control.
With `COc1ccc2[nH]c3c(C)c4ccncc4c(C)c3c2c1` the T/C [17] was 100 % of control, the T/C (dose: 5.0 mg/kg/injection, schedule: Q01DX010 (ip), vehicle: saline) was 93 % of control and the T/C [19] was 103 % of control. For the same molecule, the T/C [20] was 117 % of control.
With `CN(Cc1cnc2nc(N)nc(N)c2n1)c1c(Cl)cc(C(=O)NC(CCC(=O)O)C(=O)O)cc1Cl` (stereo not drawn) the T/C [20] was 120 % of control.
With `CN1CCCC1c1cccnc1` (stereo not drawn) the T/C (dose: 0.13 mg/kg/injection, schedule: Q01DX010 (ip), vehicle: saline) was 100 % of control, the T/C [18] was 100 % of control and the T/C [15] was 100 % of control. The T/C [16] was 100 % of control.
`O=CCC(O)C(O)C(O)CO` (stereo not drawn) was tested, and the T/C [5] was 103 % of control, the T/C [6] was 92 % of control and 107 % of control and the T/C [22] was 107 % of control and 115 % of control.
With `C/C=C1\CN(C=O)C2CC3c4ccccc4NC3C(=O)CC1C2C(=O)OC` (stereo not drawn) the T/C [14] was 100 % of control, the T/C [10] was 100 % of control and the T/C [11] was 100 % of control. For the same molecule, the T/C [12] was 100 % of control.
With `C[C@]12C[C@H](O)[C@H]3[C@@H](CCC4=CC(=O)CC[C@@]43C)[C@@H]1CC[C@@H]2C(=O)CO` the T/C (dose: 12.5 mg/kg/injection, schedule: Q01DX010 (sc), vehicle: steriod suspending solution) was 100 % of control, the T/C (dose: 25.0 mg/kg/injection, schedule: Q01DX010 (sc), vehicle: steriod suspending solution) was 100 % of control and the T/C (dose: 50.0 mg/kg/injection, schedule: Q01DX010 (sc), vehicle: steriod suspending solution) was 100 % of control. For the same molecule, the T/C (dose: 100.0 mg/kg/injection, schedule: Q01DX010 (sc), vehicle: steriod suspending solution) was 100 % of control.
In the case of `N[C@@H](Cc1ccc(N(CCCl)CCCl)cc1)C(=O)O`, the T/C [15] is reported as 119 % of control and 123 % of control, the T/C (dose: 1.0 mg/kg/injection, schedule: Q01DX010 (ip), vehicle: other) is reported as 88 % of control and the T/C [16] is reported as 119 % of control and 123 % of control. For the same molecule, the T/C [7] was 161 % of control.
In the case of `CS(=O)(=O)OCCCl`, the T/C (dose: 18.8 mg/kg/injection, schedule: Q01DX010 (ip), vehicle: saline) is reported as 89 % of control, the T/C (dose: 37.5 mg/kg/injection, schedule: Q01DX010 (ip), vehicle: saline) is reported as 100 % of control and the T/C (dose: 75.0 mg/kg/injection, schedule: Q01DX010 (ip), vehicle: saline) is reported as 92 % of control.
For `c1ccc(CCSc2ncnc3nc[nH]c23)cc1`, the T/C [5] was 100 % of control, the T/C [6] was 100 % of control and the T/C [22] was 104 % of control.
In the case of `CSc1ncnc2c1ncn2C1OC(CO)C(O)C1O` (stereo not drawn), the T/C [8] is reported as 100 % of control, the T/C [9] is reported as 100 % of control and the T/C [21] is reported as 96 % of control and 100 % of control.
In the case of `Cn1cnc([N+](=O)[O-])c1Sc1ncnc2nc[nH]c12`, the T/C [11] is reported as 96 % of control.
In the case of `CCCCCC(=O)O[C@]1(C(C)=O)CC[C@H]2[C@@H]3CCC4=CC(=O)CC[C@]4(C)[C@H]3CC[C@@]21C`, the T/C (dose: 250.0 mg/kg/injection, schedule: Q01DX010 (sc), vehicle: steriod suspending solution) is reported as 103 % of control, the T/C (dose: 375.0 mg/kg/injection, schedule: Q01DX010 (sc), vehicle: steriod suspending solution) is reported as 100 % of control and the T/C (dose: 500.0 mg/kg/injection, schedule: Q01DX010 (sc), vehicle: steriod suspending solution) is reported as 100 % of control. The T/C (dose: 750.0 mg/kg/injection, schedule: Q01DX010 (sc), vehicle: steriod suspending solution) was 107 % of control.
For `CCOC(C)C(/C=N/NC(N)=S)=NNC(N)=S` (stereo not drawn), the T/C (dose: 15.0 mg/kg/injection, schedule: Q01DX010 (ip), vehicle: saline) was 91 % of control, the T/C (dose: 30.0 mg/kg/injection, schedule: Q01DX010 (ip), vehicle: saline) was 100 % of control and the T/C (dose: 60.0 mg/kg/injection, schedule: Q01DX010 (ip), vehicle: saline) was 100 % of control. The T/C (dose: 120.0 mg/kg/injection, schedule: Q01DX010 (ip), vehicle: saline) was 95 % of control.
For `CC(C)(C)CC(C)(C)c1ccc(O)cc1`, the T/C [4] was 100 % of control, the T/C [5] was 100 % of control and the T/C [6] was 107 % of control. The T/C [22] was 111 % of control.
